According to patent US12628822B2, “Plant pathogen defence elicitors” (UNIVERSITÉ LIBRE DE BRUXELLES, priority 2020, dated 2026):

Experiments:
[1] = target: beta-glucosidases enzyme from Aspergillus niger (Aspergillus niger, UniProt A2RAL4); settings: 100 μM, 1 μM enzyme, 50 Celsius degree, pH 5.5; after instant (less then 5 minutes) incubation
Procedure: The volume of reaction was set at 500 μl and carried in 2 ml gas tight tubes, shacked constantly at 800 rpm, and the hydrolysis was sampled 100 μl after 5 minutes, 30 minutes and 60 minutes. The hydrolysates were analysed by HPAEC analytics according to Westereng et al. 2013 (vide supra).

Ethylene production = test: Ethylene emanation of Arabidopsis seedlings (ETD 300 detector); assay type: in vivo, Arabidopsis thaliana; settings: 100 μM sprayed; 3 weeks in vitro seedlings
Procedure: Ethylene production was analysed in three independent experiments with the ETD 300 detector (Sensor-Sense, Nijmegen, the Netherlands) under a stop-and-flow routine where the gas from one vial accumulated in an interval of 10 min, and then flushed to the detector. Bars in FIG. 15 represent mean and standard deviation.

beta-glucosidases enzyme from Aspergillus niger, sequence (A2RAL4 20-860): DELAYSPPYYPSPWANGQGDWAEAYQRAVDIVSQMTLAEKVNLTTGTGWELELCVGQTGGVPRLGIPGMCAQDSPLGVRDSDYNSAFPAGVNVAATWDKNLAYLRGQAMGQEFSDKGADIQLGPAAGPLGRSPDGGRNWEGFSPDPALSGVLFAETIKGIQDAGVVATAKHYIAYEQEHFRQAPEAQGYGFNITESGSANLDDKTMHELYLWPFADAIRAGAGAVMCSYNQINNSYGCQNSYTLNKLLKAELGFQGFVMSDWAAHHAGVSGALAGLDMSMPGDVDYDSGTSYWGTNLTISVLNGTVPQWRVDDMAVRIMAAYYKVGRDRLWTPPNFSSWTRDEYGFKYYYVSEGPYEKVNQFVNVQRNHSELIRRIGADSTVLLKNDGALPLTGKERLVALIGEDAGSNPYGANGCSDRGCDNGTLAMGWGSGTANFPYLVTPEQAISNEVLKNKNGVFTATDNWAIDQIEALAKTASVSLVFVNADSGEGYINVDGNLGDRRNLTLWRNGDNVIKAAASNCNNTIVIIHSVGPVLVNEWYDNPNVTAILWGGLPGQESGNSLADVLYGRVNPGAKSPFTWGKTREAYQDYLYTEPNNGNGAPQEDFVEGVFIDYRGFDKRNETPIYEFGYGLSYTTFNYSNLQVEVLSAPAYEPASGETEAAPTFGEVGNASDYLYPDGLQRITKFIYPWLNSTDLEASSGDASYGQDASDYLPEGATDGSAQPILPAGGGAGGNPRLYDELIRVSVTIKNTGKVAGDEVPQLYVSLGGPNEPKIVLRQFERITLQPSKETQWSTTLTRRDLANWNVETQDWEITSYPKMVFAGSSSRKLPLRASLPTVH

SMILES	resistance to digestion by beta-glucosidases [1]	Ethylene production versus mock-treated seedlings (Ethylene production)
O=C1C(CO)OC(OC2C(CO)OC(O)C(O)C2O)C(O)C1O (stereo not drawn) [4-keto-cellobiose]	able to resist the digestion	
O=C(O)[C@H](O)[C@@H](O)[C@H](O[C@@H]1O[C@H](CO)[C@@H](O)[C@H](O)[C@H]1O)[C@H](O)CO [cellobionic acid, 4-O-β-D-glucopyranosyl-D-gluconic acid]	able to resist the digestion	higher
